Data on 25 molecules can be found in ChEMBL document CHEMBL4190315, “Novel cinnamamide-dibenzylamine hybrids: Potent neurogenic agents with antioxidant, cholinergic, and neuroprotective properties as innovative drugs for Alzheimer's disease” (Eur J Med Chem, 2017).

SMILES strings stand for the structures. Calls of active or inactive are those of the source. No cut-off for these calls is given here.

Series [1] deals with Cholinesterase (Homo sapiens, UniProt P06276). Description: Inhibition of human serum BChE using S-butyrylthiocholine iodide as substrate preincubated for 5 mins followed by substrate addition measured up to 180 secs by spectrophotometric analysis.
Cholinesterase (Homo sapiens, UniProt P06276), sequence (P06276 whole entry): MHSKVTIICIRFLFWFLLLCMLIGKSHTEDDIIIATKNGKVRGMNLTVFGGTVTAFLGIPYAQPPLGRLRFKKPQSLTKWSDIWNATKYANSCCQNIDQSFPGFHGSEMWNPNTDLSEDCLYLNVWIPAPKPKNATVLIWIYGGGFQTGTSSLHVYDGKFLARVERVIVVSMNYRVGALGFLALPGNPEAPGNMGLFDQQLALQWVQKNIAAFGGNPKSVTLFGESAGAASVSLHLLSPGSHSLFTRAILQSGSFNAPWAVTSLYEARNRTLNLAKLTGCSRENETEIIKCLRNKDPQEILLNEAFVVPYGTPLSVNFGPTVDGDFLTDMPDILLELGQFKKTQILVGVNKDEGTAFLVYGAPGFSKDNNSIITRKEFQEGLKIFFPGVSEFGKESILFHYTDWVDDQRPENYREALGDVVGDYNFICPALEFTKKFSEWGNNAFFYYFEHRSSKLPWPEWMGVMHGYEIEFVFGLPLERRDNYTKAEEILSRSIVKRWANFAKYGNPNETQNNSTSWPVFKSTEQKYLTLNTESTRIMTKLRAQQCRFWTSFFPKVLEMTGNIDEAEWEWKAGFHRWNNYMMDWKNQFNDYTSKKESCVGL
Series [2] deals with Acetylcholinesterase (Electrophorus electricus, UniProt O42275). Description: Inhibition of electric eel AChE using acetylthiocholine iodide as substrate preincubated for 5 mins followed by substrate addition measured up to 180 secs by spectrophotometric analysis.
Acetylcholinesterase (Electrophorus electricus, UniProt O42275), sequence (O42275 whole entry): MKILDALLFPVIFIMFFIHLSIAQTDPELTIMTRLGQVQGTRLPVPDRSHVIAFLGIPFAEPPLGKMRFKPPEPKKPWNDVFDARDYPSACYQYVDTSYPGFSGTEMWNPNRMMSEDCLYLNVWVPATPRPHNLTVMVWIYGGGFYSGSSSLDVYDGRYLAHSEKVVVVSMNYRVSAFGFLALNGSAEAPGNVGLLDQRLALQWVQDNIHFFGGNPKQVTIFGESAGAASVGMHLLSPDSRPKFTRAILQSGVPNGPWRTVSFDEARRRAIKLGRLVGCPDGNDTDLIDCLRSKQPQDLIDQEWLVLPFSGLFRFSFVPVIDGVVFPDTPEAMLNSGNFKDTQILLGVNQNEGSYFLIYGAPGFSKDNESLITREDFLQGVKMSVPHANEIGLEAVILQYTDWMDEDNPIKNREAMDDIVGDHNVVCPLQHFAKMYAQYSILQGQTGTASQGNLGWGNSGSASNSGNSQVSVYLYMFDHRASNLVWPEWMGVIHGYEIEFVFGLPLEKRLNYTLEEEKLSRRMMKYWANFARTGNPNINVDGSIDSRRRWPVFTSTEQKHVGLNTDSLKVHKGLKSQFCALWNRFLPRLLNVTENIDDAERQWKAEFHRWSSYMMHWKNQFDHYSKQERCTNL
A short description of series [3]: Antioxidant activity assessed as inhibition of AAPH-induced peroxyl radical generation measured as trolox equivalent preincubated for 15 mins followed by AAPH addition measured every min for 120 mins by ORAC-FL assay. Type of series: functional.
Series [4] can be described thus: Selectivity index, ratio of IC50 for equine serum BChE to IC50 for electric eel AChE.
In series [5] the target is Acetylcholinesterase (Homo sapiens, UniProt P22303). Description: Inhibition of human erythrocytic AChE using acetylthiocholine iodide as substrate preincubated for 5 mins followed by substrate addition measured up to 180 secs by spectrophotometric analysis.
Acetylcholinesterase (Homo sapiens, UniProt P22303), sequence (P22303 whole entry): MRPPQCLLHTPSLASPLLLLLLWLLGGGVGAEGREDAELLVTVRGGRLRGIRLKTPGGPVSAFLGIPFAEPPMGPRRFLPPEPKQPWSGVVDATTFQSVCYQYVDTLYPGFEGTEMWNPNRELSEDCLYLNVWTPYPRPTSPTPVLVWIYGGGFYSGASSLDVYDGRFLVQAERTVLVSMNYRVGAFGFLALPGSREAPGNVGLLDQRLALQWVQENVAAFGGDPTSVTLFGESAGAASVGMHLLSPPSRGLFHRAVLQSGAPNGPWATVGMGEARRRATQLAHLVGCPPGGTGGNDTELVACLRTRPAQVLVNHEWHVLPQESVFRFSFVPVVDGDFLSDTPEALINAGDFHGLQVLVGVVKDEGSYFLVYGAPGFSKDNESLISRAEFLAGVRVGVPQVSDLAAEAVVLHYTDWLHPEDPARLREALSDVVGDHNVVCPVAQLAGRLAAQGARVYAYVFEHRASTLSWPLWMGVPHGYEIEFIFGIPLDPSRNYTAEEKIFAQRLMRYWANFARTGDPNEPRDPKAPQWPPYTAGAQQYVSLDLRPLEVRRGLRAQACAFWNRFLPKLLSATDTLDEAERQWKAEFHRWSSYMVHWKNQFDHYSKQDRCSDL
Series [6] has as its target Cholinesterase (Equus caballus, UniProt P81908). Description: Inhibition of equine serum BChE using S-butyrylthiocholine iodide as substrate preincubated for 5 mins followed by substrate addition measured up to 180 secs by spectrophotometric analysis.
Series [7] deals with Amyloid-beta precursor protein (Homo sapiens) (UniProt P05067). Description: Inhibition of HFIP pretreated amyloid beta (1 to 42) (unknown origin) self-aggregation at 20 uM after 48 hrs by thioflavin T fluorescence assay relative to control.
Amyloid-beta precursor protein (Homo sapiens), sequence (P05067 whole entry): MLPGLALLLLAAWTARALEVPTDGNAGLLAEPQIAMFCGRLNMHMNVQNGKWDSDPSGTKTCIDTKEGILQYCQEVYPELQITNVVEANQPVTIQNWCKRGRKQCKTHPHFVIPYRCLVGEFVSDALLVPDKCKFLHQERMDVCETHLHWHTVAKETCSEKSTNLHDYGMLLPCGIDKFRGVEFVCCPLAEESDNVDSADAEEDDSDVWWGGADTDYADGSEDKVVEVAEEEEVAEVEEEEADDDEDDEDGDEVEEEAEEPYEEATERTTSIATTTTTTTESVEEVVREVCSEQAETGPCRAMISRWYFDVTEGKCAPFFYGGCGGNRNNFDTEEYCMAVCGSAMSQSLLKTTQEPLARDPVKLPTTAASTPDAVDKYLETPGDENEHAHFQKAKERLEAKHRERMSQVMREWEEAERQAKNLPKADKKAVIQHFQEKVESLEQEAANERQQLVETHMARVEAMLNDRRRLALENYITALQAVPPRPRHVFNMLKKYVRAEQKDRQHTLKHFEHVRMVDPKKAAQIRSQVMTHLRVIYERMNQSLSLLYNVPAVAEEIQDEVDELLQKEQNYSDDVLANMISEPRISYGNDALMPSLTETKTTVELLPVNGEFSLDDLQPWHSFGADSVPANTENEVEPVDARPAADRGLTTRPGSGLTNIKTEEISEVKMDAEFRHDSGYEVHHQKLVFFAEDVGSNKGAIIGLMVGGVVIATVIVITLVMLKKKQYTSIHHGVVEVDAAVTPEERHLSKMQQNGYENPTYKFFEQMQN
Series [8] concerns PC-12. Description: Cytotoxicity against rat PC12 cells at 1.25 to 50 uM after 24 hrs by MTT assay. Type of series: cell-based. To be noted: pc-12, 24 h. (In general: Tetrazolium assays rely on reduction of a dye to a coloured formazan, in cell work by metabolically active cells.)
Series [9] in a line: Effective permeability of compound at 50 ug/mL after 16 hrs by PAMPA-BBB assay. In general terms: In PAMPA a lipid-coated filter parts donor from acceptor wells.
Series [10] concerns PC-12. The series is described as follows: Neuroprotective activity against H2O2-induced oxidative damage in rat PC12 cells assessed as increase in cell viability at 1.25 to 25 uM preincubated for 2 hrs followed by H2O2 challenge measured after 24 hrs by MTT assay. Type of series: functional, cell-based.
Series [11] addresses Acetylcholinesterase (Electrophorus electricus) (UniProt O42275). The series is described as follows: Inhibition of electric eel AChE at 0.001 to 100 uM using acetylthiocholine iodide as substrate preincubated for 5 mins followed by substrate addition measured up to 180 secs by spectrophotometric analysis relative to control.

Acetylcholinesterase (Electrophorus electricus), sequence (O42275 24-633 limits assumed): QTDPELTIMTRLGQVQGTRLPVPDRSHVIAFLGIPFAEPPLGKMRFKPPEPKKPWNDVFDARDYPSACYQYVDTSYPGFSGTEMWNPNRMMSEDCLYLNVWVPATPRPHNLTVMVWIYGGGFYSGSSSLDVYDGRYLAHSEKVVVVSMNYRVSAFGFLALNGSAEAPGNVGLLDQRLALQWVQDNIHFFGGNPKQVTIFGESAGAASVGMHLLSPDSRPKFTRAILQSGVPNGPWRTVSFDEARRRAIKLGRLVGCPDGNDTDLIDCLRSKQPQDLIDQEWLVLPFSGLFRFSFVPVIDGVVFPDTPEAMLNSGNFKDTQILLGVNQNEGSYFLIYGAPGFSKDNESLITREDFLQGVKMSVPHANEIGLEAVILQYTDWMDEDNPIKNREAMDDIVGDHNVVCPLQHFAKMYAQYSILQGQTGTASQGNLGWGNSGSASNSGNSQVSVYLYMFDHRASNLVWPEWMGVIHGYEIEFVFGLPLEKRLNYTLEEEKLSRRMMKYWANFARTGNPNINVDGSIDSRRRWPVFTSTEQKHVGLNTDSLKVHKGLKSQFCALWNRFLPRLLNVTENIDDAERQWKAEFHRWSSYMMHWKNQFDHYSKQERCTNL
Cholinesterase (Equus caballus, UniProt P81908), sequence (P81908 whole entry): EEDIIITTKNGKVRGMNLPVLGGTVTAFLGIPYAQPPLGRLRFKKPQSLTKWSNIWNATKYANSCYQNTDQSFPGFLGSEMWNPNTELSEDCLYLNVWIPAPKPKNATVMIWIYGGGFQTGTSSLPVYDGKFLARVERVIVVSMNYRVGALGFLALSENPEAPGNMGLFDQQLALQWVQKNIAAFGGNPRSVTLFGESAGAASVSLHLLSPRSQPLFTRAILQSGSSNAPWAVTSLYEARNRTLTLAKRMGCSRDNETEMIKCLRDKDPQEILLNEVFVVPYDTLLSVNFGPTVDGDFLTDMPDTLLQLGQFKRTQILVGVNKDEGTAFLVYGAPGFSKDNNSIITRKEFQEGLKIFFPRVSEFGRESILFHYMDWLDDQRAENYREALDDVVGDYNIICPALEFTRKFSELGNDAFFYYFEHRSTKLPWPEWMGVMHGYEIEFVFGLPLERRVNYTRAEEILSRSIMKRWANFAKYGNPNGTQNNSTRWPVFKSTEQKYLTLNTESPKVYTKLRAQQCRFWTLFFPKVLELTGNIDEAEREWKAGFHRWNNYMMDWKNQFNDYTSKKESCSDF

As to `CCN(Cc1ccccc1)Cc1ccc(NC(=O)Cc2ccc(OC)c(O)c2)cc1`, the half-maximal inhibitory concentration (IC50) (in general, the concentration that inhibits the measured activity by half) at Cholinesterase [1] amounted to 1.46 µM; at Acetylcholinesterase [2] it was 1.89 µM; at Acetylcholinesterase [5] it was 2.76 µM; against Cholinesterase [6], 3.29 µM. The Activity in [3] turned out to be 1.48 equiv. Further, the Ratio IC50 in series [4] was determined as 1.76. In addition, in [7], the inhibition (as a rule, the change of the read-out against control, counted positive when it falls) was determined as 43.5%.
`CN(Cc1ccccc1)Cc1ccc(NC(=O)/C=C/c2ccccc2)cc1`: the 50% inhibitory concentration (IC50) on Acetylcholinesterase [2] was determined as 5.27 µM; on Cholinesterase [6], 8.21 µM. In addition, in [3], the Activity turned out to be 1.1 equiv. In addition, the Ratio IC50 in series [4] was found to be 1.55. In series [7], the inhibition worked out at 56.8%.
On to `CCN(Cc1ccccc1)Cc1ccc(NC(=O)Cc2ccc(OC)c(OC)c2)cc1`, for which the IC50 turned out to be 1.21 µM at Cholinesterase [1], 1.55 µM at Acetylcholinesterase [2], 3.22 µM against Acetylcholinesterase [5] and 3.3 µM at Cholinesterase [6]. Moreover, in series [3], the Activity worked out at 0.48 equiv. Besides, the Ratio IC50 in [4] stood at 2.13. Besides, the inhibition in series [7] is 40.6%.
Turning to `CCN(Cc1ccccc1)Cc1ccc(NC(=O)Cc2ccc(O)c(O)c2)cc1`, the concentration for half-maximal inhibition (IC50) against Cholinesterase [1] is 2.4 µM; on Acetylcholinesterase [2], 3.63 µM; against Acetylcholinesterase [5], 7.26 µM; against Cholinesterase [6], 5.95 µM. In addition, the values for the Activity entry (in the series on PC-12 [8]; in [3]) were “Non-Toxic” and 3.25 equiv, respectively. For the same molecule, the Ratio IC50 in [4] came out at 1.54. Moreover, in series [9], the Papp (in general, a coefficient for how fast a substance crosses the barrier) at 16 h, 50 ug/mL worked out at 4.41 ×10⁻⁶ cm/s. Also, the outcome in the series with PC-12 [10] was Active. The inhibition in series [7] is 42.1%.
As to `COc1cc2cc(-c3ccc(CN(C)Cc4ccccc4)cc3)c(=O)oc2cc1OC`, the IC50 against Acetylcholinesterase [2] amounted to 0.04 µM; on Cholinesterase [6], 12.4 µM. Moreover, the Ratio IC50 in series [4] amounted to 315.
Molecule `Clc1cccc(Cl)c1N=C1NCCN1` [CLONIDINE] displayed a Papp at 16 h, 50 ug/mL in series [9] of 3.1 ×10⁻⁶ cm/s.
For `COc1ccc(CC(=O)Nc2ccc(CN(C)Cc3ccccc3)cc2)cc1O`, the IC50 was determined as 1.29 µM at Cholinesterase [1], 1.05 µM against Acetylcholinesterase [2], 3.04 µM against Acetylcholinesterase [5] and 2.4 µM against Cholinesterase [6]. Moreover, the Activity entry was “Non-Toxic” with PC-12 [8] and 1.5 equiv in series [3]. In series [4], the Ratio IC50 stood at 2.29. The molecule further displayed a Papp at 16 h, 50 ug/mL in series [9] of 4.37 ×10⁻⁶ cm/s. Further, in the series with PC-12 [10], the outcome was Active. Besides, the inhibition in [7] is 42.5%.
In the case of `CN(Cc1ccccc1)Cc1ccc(NC(=O)/C=C/c2ccc(O)cc2)cc1`, the IC50 at Acetylcholinesterase [2] stood at 4.85 µM; at Cholinesterase [6], 9.5 µM. Further, the Activity in series [3] worked out at 2.13 equiv. Also, the Ratio IC50 in series [4] came out at 1.95. Further, the inhibition in [7] was determined as 56.6%.
Take `CCN(Cc1ccccc1)Cc1ccc(NC(=O)Cc2ccccc2)cc1`: the figures for the IC50 at Acetylcholinesterase [2] and at Cholinesterase [6] were 6.63 µM and 13.9 µM, respectively. Further, the Activity in series [3] stood at 0.26 equiv. The Ratio IC50 in [4] was found to be 1.5. The inhibition in series [7] is 38.1%.
Turning to `COc1cc(/C=C/C(=O)Nc2ccc(CN(C)Cc3ccccc3)cc2)ccc1O`, the IC50 against Cholinesterase [1] amounted to 5.12 µM; on Acetylcholinesterase [2], 3.99 µM; against Acetylcholinesterase [5] it was 8.32 µM; on Cholinesterase [6], 8.78 µM. For the same molecule, the results for the Activity entry (in the series with PC-12 [8]; in [3]) were “Non-Toxic” and 2.86 equiv, respectively. The Ratio IC50 in series [4] was 2.2. The molecule further registered a Papp at 16 h, 50 ug/mL in series [9] of 6.21 ×10⁻⁶ cm/s. Further, the outcome with PC-12 [10] was Active. Moreover, the inhibition in series [7] is 56.8%.
In the case of `CN(Cc1ccccc1)Cc1ccc(NC(=O)Cc2ccc(O)c(O)c2)cc1`, the IC50 against Cholinesterase [1] came to 0.95 µM; at Acetylcholinesterase [2], 1.68 µM; against Acetylcholinesterase [5], 4.63 µM; against Cholinesterase [6] it was 2.28 µM. The figures for the Activity entry (in the series on PC-12 [8]; in [3]) were “Non-Toxic” and 3.26 equiv, respectively. Also, the Ratio IC50 in [4] was 1.36. In addition, the Papp at 16 h, 50 ug/mL in series [9] worked out at 3.9 ×10⁻⁶ cm/s. The outcome in the series on PC-12 [10] was Active. Besides, in series [7], the inhibition turned out to be 40.5%.
On to `COc1ccc(/C=C/C(=O)Nc2ccc(CN(C)Cc3ccccc3)cc2)cc1`, for which the IC50 against Cholinesterase [1] was 6.4 µM; against Acetylcholinesterase [2] it was 3.72 µM; against Acetylcholinesterase [5] it was 4.56 µM; against Cholinesterase [6], 8.21 µM. For the same molecule, the Activity in [3] was determined as 1.34 equiv. For the same molecule, the Ratio IC50 in [4] turned out to be 2.2. Further, in [7], the inhibition was found to be 57.8%.
`CN1C(C(=O)Nc2ccccn2)=C(O)c2ccccc2S1(=O)=O` [PIROXICAM] registered a Papp at 16 h, 50 ug/mL in series [9] of 3.29 ×10⁻⁶ cm/s.
On to `CN(Cc1ccccc1)Cc1ccc(NC(=O)Cc2ccccc2)cc1`, for which the IC50 on Cholinesterase [1] was determined as 4.95 µM; on Acetylcholinesterase [2] it was 3.24 µM; at Acetylcholinesterase [5] it was 5.8 µM; at Cholinesterase [6], 5.28 µM. Further, the Activity in [3] amounted to 0.38 equiv. For the same molecule, in series [4], the Ratio IC50 was 1.63. In addition, the inhibition in series [7] is 33.5%.
In the case of `CN(Cc1ccccc1)Cc1ccc(NC(=O)Cc2ccc(O)cc2)cc1`, the IC50 on Cholinesterase [1] worked out at 4.32 µM; on Acetylcholinesterase [2], 2.26 µM; on Acetylcholinesterase [5], 3.24 µM; against Cholinesterase [6], 3.48 µM. Besides, the Activity in [3] was 1.38 equiv. Further, the Ratio IC50 in series [4] was 2.12. Besides, the inhibition in series [7] came to 38.5%.
Consider `COc1ccc(CC(=O)Nc2ccc(CN(C)Cc3ccccc3)cc2)cc1OC`, for which the 50% inhibitory concentration (IC50) against Cholinesterase [1] is 1.05 µM; against Acetylcholinesterase [2] it was 1.06 µM; on Acetylcholinesterase [5] it was 1.85 µM; on Cholinesterase [6], 1.48 µM. The Activity in series [3] came to 0.5 equiv. Further, in [4], the Ratio IC50 was found to be 1.4. For the same molecule, the inhibition in [7] was 38.5%.
In series [9], `NCCc1ccc(O)c(O)c1` [DOPAMINE] returned a Papp at 16 h, 50 ug/mL of 0.45 ×10⁻⁶ cm/s.
Turning to `COc1cc(/C=C/C(=O)O)ccc1O`, the Activity in [3] was found to be 2.56 equiv.
Consider `CN(Cc1ccccc1)Cc1ccc(NC(=O)CCc2ccccc2)cc1`, for which the inhibition was 45% in [11] and 35.2% in series [7]. In series [3], the Activity is 0.3 equiv. For the same molecule, the half-maximal inhibitory concentration (IC50) against Cholinesterase [6] was found to be 5.29 µM.
With `CCN(Cc1ccccc1)Cc1ccc(NC(=O)CCc2ccccc2)cc1`, the inhibition in series [11] came out at 34%; in series [7], 36.1%. In addition, the Activity in series [3] came out at 0.32 equiv. This molecule also had an IC50 at Cholinesterase [6] of 13.9 µM.
On to `CCN(Cc1ccccc1)Cc1ccc(NC(=O)c2ccccc2)cc1`, for which the inhibition in [11] was 33%; in series [7] it was 37.1%. Moreover, the Activity in series [3] was 0.32 equiv. The same molecule displayed an IC50 against Cholinesterase [6] of 13.9 µM.
Take `COc1ccc(/C=C/C(=O)Nc2ccc(CN(C)Cc3ccccc3)cc2)cc1OC`: the 50% inhibitory concentration (IC50) against Cholinesterase [1] was determined as 1.56 µM; on Acetylcholinesterase [2] it was 1.94 µM; against Acetylcholinesterase [5], 2.96 µM; against Cholinesterase [6], 3.72 µM. Besides, the Activity in series [3] was 1.28 equiv. Moreover, the Ratio IC50 in [4] came to 1.9. In [9], this molecule came in with a Papp at 16 h, 50 ug/mL of 7.56 ×10⁻⁶ cm/s. In addition, the inhibition in series [7] came out at 56.6%.
With `CC(=O)[C@H]1CC[C@H]2[C@@H]3CCC4=CC(=O)CC[C@]4(C)[C@H]3CC[C@]12C` [PROGESTERONE], in series [9], the Papp at 16 h, 50 ug/mL worked out at 8.62 ×10⁻⁶ cm/s.
For the molecule `CN(Cc1ccccc1)Cc1ccc(NC(=O)c2ccccc2)cc1`, the values for the inhibition in series [11] and in series [7] were 38% and 35.2%, respectively. Also, in [3], the Activity is 0.36 equiv. This molecule also gave an IC50 against Cholinesterase [6] of 5.3 µM.
For `CCN(Cc1ccccc1)Cc1ccc(NC(=O)Cc2ccc(O)cc2)cc1`, the IC50 was 2.03 µM against Cholinesterase [1], 3.82 µM against Acetylcholinesterase [2], 6.5 µM against Acetylcholinesterase [5] and 4.45 µM on Cholinesterase [6]. In addition, the Activity in series [3] was determined as 1.35 equiv. Also, the Ratio IC50 in [4] amounted to 1.16. For the same molecule, the inhibition in series [7] was 42.1%.
